From US20080004266A1, “Method for treating proliferative disorders associated with protooncogene products” (priority 2006, published 2008)
Several values for one entry are separate records, joined by “and”; a condition that tells them apart may be missing. Identical values can stand only once.

Test system: human chronic myelogenous leukemia tumor cell line K-562
Assay: K-562 (Bcr-Abl) SCID mouse xenograft model
Format: in vivo, human (xenograft in SCID mouse)
Conditions: 35 mg/kg i.v. 5 times per week, day 17
Experimental: Growth of this tumor cell line is dependent upon the expression of the Bcr-Abl fusion protein (C. Gambacarti-Passerini et al., Blood Cells Mol. Dis. 23:380-394, 1997). The cells were cultured in growth media prepared with Iscove's Modified Dulbecco's Media, 10% fetal bovine serum (FBS), 1% 100× Penicillin-Streptomycin, 1% 100× sodium pyruvate and 1% 100×MEM non-essential amino acids. FBS was obtained from ATCC and all other reagents were obtained from Invitrogen Corp. (Carlsbad, Calif., USA). Cells that had been cryopreserved in liquid nitrogen were rapidly thawed at 37° C. and transferred to a tissue culture flask containing growth media and then incubated at 37° C. in a 5% CO2 incubator. […]
Seven to eight week old, female CB17/Icr-Prkdc^scid/Crl (SCID) mice were obtained from Charles River Laboratories (Wilmington, Mass., USA). […] To implant K-562 tumor cells into SCID mice, cell cultures were centrifuged to pellet the cells, the supernatant was aspirated, the cell pellet was resuspended in 10 ml of growth media and the cell number determined using a hemocytometer. […]
Tumors were then permitted to develop in vivo until the majority reached 100-200 mm^3 in tumor volume, which typically required 1-2 weeks following implantation. […] Tumor volumes (V) were calculated by caliper measurement of the width (W), length (L) and thickness (T) of tumors using the following formula: V=0.5236×(L×W×T). […]

SMILES: CC(C)c1cc(-c2nnc(O)n2-c2ccc3c(ccn3C)c2)c(O)cc1O [Compound 226, 3-(2,4-di-hydroxy-5-isopropyl-phenyl)-4-(1-methyl-indol-5-yl)-5-hydroxy-[1,2,4] triazole]
- average bodyweight loss relative to the start of the study: −12.4% (+/−1.4 SEM)
- % T/C value (SCID mice, 6 doses, 35 mg/kg): 25% and 24.7%
